Source: patent publication US11873298B2, “Compounds and uses thereof” (JANSSEN PHARMACEUTICA NV, priority 2017, dated 2024)

Columns and labels:
[1] = biological target: T1, Ole1 (Saccharomyces cerevisiae, UniProt P21147); assay: Growth inhibition of yeast strain expressing Ole1 as sole desaturase; assay type: cell-based; details: yeast strain expressing Ole1 as sole desaturase
T1 construct: expressed in transfected cells; host or cells: S. cerevisiae ole1Δ strain (W303 pdr1Δ pdr3Δ background), plasmid pRS316 with TDH3 promoter and CYC1 terminator
T1 sequence (P21147 1-510): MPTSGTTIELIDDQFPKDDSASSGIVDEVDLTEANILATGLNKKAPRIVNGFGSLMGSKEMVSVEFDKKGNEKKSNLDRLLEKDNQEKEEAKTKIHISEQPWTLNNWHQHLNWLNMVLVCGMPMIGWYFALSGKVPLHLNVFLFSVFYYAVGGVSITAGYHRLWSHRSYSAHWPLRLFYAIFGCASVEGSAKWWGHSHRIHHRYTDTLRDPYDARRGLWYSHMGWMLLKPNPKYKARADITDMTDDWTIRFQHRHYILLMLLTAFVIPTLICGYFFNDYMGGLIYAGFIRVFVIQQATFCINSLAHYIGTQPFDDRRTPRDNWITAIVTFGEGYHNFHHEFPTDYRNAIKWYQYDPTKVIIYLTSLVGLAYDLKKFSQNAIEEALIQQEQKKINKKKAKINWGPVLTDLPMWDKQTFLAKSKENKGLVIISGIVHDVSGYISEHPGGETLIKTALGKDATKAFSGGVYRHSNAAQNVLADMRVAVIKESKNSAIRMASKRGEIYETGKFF
In short: (§1)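 Measured by optical density at 600 nm, growth of desaturase-dependent yeast (OLE1 deleted; human SCD1, human SCD5 or yeast Ole1 supplied from plasmid) was scored after 24 h (Ole1) or 40 h (SCD1, SCD5) at 30° C. in galactose media lacking uracil with DMSO-delivered compound.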

[2] = biological target: T2, SCD5 (Homo sapiens, UniProt Q86SK9); assay: Growth inhibition of humanized yeast strain expressing SCD5 as sole desaturase; assay type: cell-based; details: humanized yeast strain expressing SCD5
T2 construct: host or cells: S. cerevisiae ole1Δ strain (W303 pdr1Δ pdr3Δ background), plasmid pRS316 with TDH3 promoter and CYC1 terminator
T2 sequence (Q86SK9 1-330): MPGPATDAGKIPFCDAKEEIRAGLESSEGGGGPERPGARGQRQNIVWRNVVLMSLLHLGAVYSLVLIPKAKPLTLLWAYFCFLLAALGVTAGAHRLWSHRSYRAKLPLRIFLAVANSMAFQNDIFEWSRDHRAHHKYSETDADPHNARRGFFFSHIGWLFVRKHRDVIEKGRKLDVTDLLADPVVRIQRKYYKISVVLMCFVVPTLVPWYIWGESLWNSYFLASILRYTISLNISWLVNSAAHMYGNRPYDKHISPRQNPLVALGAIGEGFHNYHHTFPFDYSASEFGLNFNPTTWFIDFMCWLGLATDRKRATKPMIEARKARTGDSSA
In short: as §1

[3] = system: yeast strains expressing the human ApoE4; assay: Yeast ApoE4 toxicity rescue assay (OD600 growth); details: 24 h; for EC50: read-out: ApoE4 EC50; for Emax: read-out: ApoE4 Emax
From the text: The induced expression of α-synuclein and ApoE4 confers cytotoxicity, thus enabling the identification of compounds that can restore cell viability. This instantaneous/synchronous induction of α-synuclein and ApoE4 can be achieved due to the following expression control. In glucose-containing media, gene expression from the GAL1 promoter is ‘off’ and actively repressed by additional epigenetic factors. In raffinose, expression is ‘off’, but the promoter not actively repressed. Upon transition to galactose-containing media, the promoter is instantaneously turned ‘on’ to achieve robust and synchronous induction of α-synuclein or ApoE4 expression. This highly regulated induction provides a robust window for the determination of both efficacy (amplitude of protective effect) and potency (concentration of protective effect) of cytoprotective compounds.
Re-suspended compound stocks were subsequently arrayed into 384 well compound plates using automated pipetting. All other wells not receiving stock compound were filled with 10 μL of 100% DMSO using an automated plate filler (Multidrop Combi). An 11 point, 2-fold serial dilution was then performed using the robotic platform. Compound assay plates were covered with foil and stored at −20° C. until use.
Each strain was handled according to standard protocols and cultured in media composed of CSM (complete synthetic media), YNB (yeast nitrogenous base), and a 2% (w/v) carbon source (either glucose, raffinose, or galactose).
In a standard yeast assay, a single-use aliquot of cells was thawed on ice and diluted into CSM/glucose (5 mL). Cultures were grown for 8 hours at 30° C. This pre-growth enables the yeast to exit the thaw and begin to grow without expressing aSyn or ApoE4. After 8 hours, cell density (OD600) was determined and cultures diluted to an OD600 of 0.01 in CSM/raffinose for an overnight culture phase at 30° C. During this period, the active glucose repression of the GAL1 promoter was relieved; however, expression of the α-Syn/ApoE4 genes were not yet induced. After ˜16 hours of growth, cultures attain an OD600 of 0.4-0.8 and were ready to apply to assay plates containing compound.
Compound profiling assays were executed in clear-bottom 384 well plates. First, compound plates were thawed at room temperature for 45′, centrifuged at 1,000×g for 1 minute, and the foil removed. Clear 384 well assay plates were then filled with 15 μL of CSM/galactose. […] The pin tool was washed iteratively with both 50% DMSO and 100% ethanol between each assay plate. After delivering compound to each assay plate, the overnight CSM/raffinose aSyn or ApoE4 cultures were added at a 2X cell density (0.04 for aSyn and 0.08 for ApoE4) in CSM/galactose to achieve a final assay OD600 of 0.02 and 0.04 for aSyn and ApoE, respectively. The cultures (15 μL per well) were then dispensed to the compound -containing 384 well assay plates using an automated plate filler. Plates were incubated in a humidified 30° C. incubator for 40 or 24 hours for aSyn and ApoE4, respectively. The ODsoo of each assay plate was then read with a microplate reader (e.g., Perkin Elmer Envision).
The efficacy and potency of compounds were calculated according to the following. Raw data (OD600 values) were first background corrected to account for OD600 contributed by the plate and media itself. The efficacy (percent above DMSO, herein referred to as “Emax”) was calculated according to the equation: (Experimental well−DMSO control well)/(DMSO control well)*100. […] Normalized dose-response data was fit with a logistic regression curve using Spotfire (TIBCO), or similar curve-fitting software package. EC50 values were then reported along with EMax to provide both efficacy and potency measures for each analog and enable further compound design.

[4] = system: yeast strains expressing the human α-synuclein; assay: Yeast α-synuclein toxicity rescue assay (OD600 growth); details: 40 h; for EC50: read-out: α-Syn EC50; for Emax: read-out: α-Syn Emax
[5] = biological target: T3, SCD1 (Homo sapiens, UniProt O00767); assay: Growth inhibition of humanized yeast strain expressing SCD1 as sole desaturase; assay type: cell-based; details: humanized yeast strain expressing SCD1
T3 construct: host or cells: S. cerevisiae ole1Δ strain (W303 pdr1Δ pdr3Δ background), plasmid pRS316 with TDH3 promoter and CYC1 terminator
T3 sequence (O00767 1-359): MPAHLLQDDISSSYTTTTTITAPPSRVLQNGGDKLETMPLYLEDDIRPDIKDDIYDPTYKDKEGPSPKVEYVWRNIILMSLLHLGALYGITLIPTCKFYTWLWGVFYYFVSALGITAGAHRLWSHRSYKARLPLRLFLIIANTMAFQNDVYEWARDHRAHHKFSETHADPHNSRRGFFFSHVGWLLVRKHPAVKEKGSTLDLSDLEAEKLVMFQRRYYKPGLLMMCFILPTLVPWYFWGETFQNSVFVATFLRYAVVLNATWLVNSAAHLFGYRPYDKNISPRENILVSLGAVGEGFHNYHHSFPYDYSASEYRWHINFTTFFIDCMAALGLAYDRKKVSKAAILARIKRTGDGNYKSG
In short: as §1

Structure (SMILES) | IC50 [1] [µM] | IC50 [2] [µM] | EC50 [3] [µM] | Emax [3] [%] | EC50 [4] [µM] | Emax [4] [%] | IC50 [5] [µM] | OLE1 % Max Inhibition [1] [%] | SCD5 % Max Inhibition [2] [%] | SCD1 % Max Inhibition [5] [%]
CCOc1ccc(-c2noc(C3CCN(C(=O)c4cnc(-c5ccccc5)[nH]4)CC3)n2)cc1OC [compound 98] | > 45 | 41.1 | 9.75 | 650 | 8.01 | 386 | > 45 | – | – | –
COc1ccc(-c2noc(C3CCN(C(=O)CNC(=O)c4ccc(C)cc4)CC3)n2)cc1OC [compound 13] | > 45 | > 45 | 0.368 | 837 | 0.058 | 712 | > 45 | – | – | –
COc1cccc(-c2noc(C3CCN(C(=O)CNC(=O)c4ccc(C)c(C)c4)CC3)n2)c1 [compound 17] | > 45 | > 45 | – | 246 | 17.4 | 330 | > 45 | – | – | –
CCOc1ccc(-c2noc(C3CCN(C(=O)[C@H]4CC(=O)N(c5ccccc5)C4)CC3)n2)cc1OC [compound 85] | > 45 | > 45 | 17 | 602 | 12.6 | 486 | > 45 | – | – | –
CC(C)c1ccc(C(=O)N2CCC(c3noc(-c4cccc(F)c4)n3)CC2)cc1 [Compound 52] | > 45 | > 45 | 14.5 | 154 | 9.06 | 82 | > 45 | 11.78 | −1.01 | 1.65
O=C(NCC(=O)N1CCC(c2nc(-c3ccc(F)cc3)no2)CC1)c1ccccc1 [Compound 41] | > 45 | > 45 | – | 400 | 10.9 | 211 | 38.7 | 85.45 | 43.51 | 55.28
CCOc1ccc(-c2noc(C3CCN(C(=O)CNC(=O)c4ccccc4)CC3)n2)cc1F [compound 97] | > 45 | 30 | 3.88 | 704 | 0.707 | 132 | > 45 | – | – | –
COc1ccc(-c2noc(C3CCN(C(=O)CNC(=O)C4CCCCC4)CC3)n2)cc1OC [Compound 48] | > 45 | > 45 | 2.94 | 874 | 1.47 | 615 | 39.3 | 8.16 | 75.26 | 63.58
COc1ccc(-c2noc(C3CCN(C(=O)[C@H](C)NC(=O)c4ccccc4)CC3)n2)cc1OC (single isomer, unassigned) [Compound 59] | > 45 | > 45 | – | 47 | 15.7 | 82 | > 45 | 105.25 | 59.32 | 79.13
COc1ccc(-c2noc(C3CCN(C(=O)[C@@H](C)NC(=O)c4ccccc4)CC3)n2)cc1OC (single isomer, unassigned) [Compound 60] | > 45 | 41.1 | 0.119 | 795 | 0.032 | 605 | > 45 | 2.91 | 57.19 | 72.03
Cc1ccc(-c2nc(C3CCN(C(=O)C4CC(=O)N(c5ccc(C)c(C)c5)C4)CC3)no2)cc1 (stereo not drawn) [Compound 50] | > 45 | > 45 | – | 133 | 7.86 | 85 | – | 98.10 | 46.80 | 67.05
